Patent US20120022159A1, “AMPHIPHILIC STAR-LIKE OR SCORPION-LIKE MACROMOLECULES, VARIOUS COMPOSITIONS AND USES THEREOF” (priority 2004, published 2012)

Test system: human umbilical vein endothelial cells (HUVECs)
Experiment: Uptake of dye-loaded AScMs in HUVEC monitored by cellular accumulation of fluorescent dyes
Type: cell-based
Protocol: Methods Amphiphilic scorpion-like macromolecules (AScMs) are block copolymers that form micelles at concentrations above their CMC (5×10^−7 M). The uptake of AScMs was investigated in human umbilical vein endothelial cells (HUVECs) by monitoring cellular accumulation of the fluorescent dyes (R110, R123 and LY, respectively). Briefly, fluorescent dyes were added to AScMs solutions (0.0001-1 mM) and incubated at 37° C. for at least 6 hours prior to cell incubation. After determination of R110, R123 and LY partitioning into the AScMs micelles, dye-loaded AScMs were incubated with HUVEC. Uptake of dye-loaded AScMs was investigated as a function of time (15, 30, 60, 90 and 120 minutes) and AScMs concentration (0.0001-1 mM). Furthermore, intracellular distribution and localization of dye-loaded AScMs in HUVEC was investigated using confocal microscope. […] The decreased accumulation of R110, R123 and LY in HUVEC monolayers was inversely correlated with the extent of their partitioning into AScMs. Uptake of R110, R123 and LY-loaded micelles was also time-dependent. […] Furthermore, confocal microscopy studies confirmed increased fluorescence activity in the cells with increase in the incubation time. […] Thus, AScMs can be used to localize therapeutic compounds into cells, for example, to achieve a sustained therapeutic effect.

[1] = AScMs at concentrations above the CMC
[2] = AScMs at concentrations below the CMC

| Compound | dye accumulation in HUVEC monolayers [1] | dye accumulation in HUVEC monolayers [2] |
| --- | --- | --- |
| NNC(=O)NN1C(=O)c2cc(S(=O)(=O)[O-])cc3c(N)c(S(=O)(=O)[O-])cc(c23)C1=O.[Li+].[Li+] [LY] | significant decrease | significant increase |
| COC(=O)c1ccccc1-c1c2ccc(N)cc2[o+]c2cc(N)ccc12 [R123] | significant decrease | significant increase |
| Nc1ccc2c(-c3ccccc3C(=O)O)c3ccc(N)cc3[o+]c2c1.[Cl-] [R110] | significant decrease | significant increase |
